Columns and labels:
Format in all cases: biochemical
recombinant human MMP-2 = target: T1, recombinant human MMP-2 (Homo sapiens, UniProt P08253); assay: MMP selectivity assay, MMP-2; conditions: Table 2 selectivity profile
T1 sequence (P08253 110-660): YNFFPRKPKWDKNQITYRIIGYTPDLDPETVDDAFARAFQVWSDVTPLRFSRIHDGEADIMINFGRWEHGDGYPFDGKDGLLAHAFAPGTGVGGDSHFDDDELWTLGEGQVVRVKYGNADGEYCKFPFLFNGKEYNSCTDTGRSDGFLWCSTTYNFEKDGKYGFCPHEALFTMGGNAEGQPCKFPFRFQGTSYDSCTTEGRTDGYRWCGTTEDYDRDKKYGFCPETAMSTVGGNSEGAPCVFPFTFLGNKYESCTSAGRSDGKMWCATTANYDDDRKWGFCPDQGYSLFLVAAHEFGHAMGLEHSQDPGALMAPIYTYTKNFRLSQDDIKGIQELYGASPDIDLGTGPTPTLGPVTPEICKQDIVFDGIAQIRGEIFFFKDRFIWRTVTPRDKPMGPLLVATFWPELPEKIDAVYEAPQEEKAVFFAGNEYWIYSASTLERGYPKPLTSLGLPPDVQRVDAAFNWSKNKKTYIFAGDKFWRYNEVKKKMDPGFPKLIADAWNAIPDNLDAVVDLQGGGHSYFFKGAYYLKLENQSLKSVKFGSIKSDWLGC
Protocol: (§1) The inhibitory effect of compounds on the rate of cleaving fluorogenic MMP substrate (Enzo, BML-P128) by recombinant human MMP-12 catalytic domain (Enzo, BML-SE138) was carried out by methods known in the art. Briefly, to each well of a 96-well black opaque plate, all the reagents were sequentially added by pipetting, and the final reaction contained 4 nM of recombinant human MMP-12 catalytic domain, 4 μM of fluorogenic MMP substrate, and various concentrations (0.15 nM to 10,000 nM) of tested compound dilutions in HEPES buffer (pH 7.5) containing 10 mM of CaCl2), 0.01% Brij® 35 (polyoxyethylene (23) lauryl ether), and 0.1 mg/ml of BSA.
(§2) The enzyme and compounds were pre-incubated on a shaker to mix in wells. After an hour of mixing, fluorogenic substrate was added to each well. Reaction without enzyme was used as a blank control in the plate. The plate was then fed into a plate reader to measure fluorescence intensity at Excitation/Emission wavelengths of 340 nm/440 nm every 10 mins for at least 1 hour at 37° C. The IC50 of each compound in MMP-12 inhibition was determined by using a readout obtained at time point 30 minutes.
(§3) The MMP selectivity assay was performed by using other recombinant human MMPs, including MMP-1, MMP-2, MMP-3, MMP-7, MMP-8, MMP-9, MMP-10, MMP-13, and MMP-14. The IC50 of the compounds for the other recombinant human MMPs was determined as described above in Example 1, and are shown in Table 2.

recombinant human MMP-13 = recombinant human MMP-13 (Homo sapiens, UniProt P45452); assay: MMP selectivity assay, MMP-13; conditions: Table 2 selectivity profile
Protocol: as §1, §2, §3

recombinant human MMP-9 = recombinant human MMP-9 (Homo sapiens, UniProt P14780); assay: MMP selectivity assay, MMP-9; conditions: Table 2 selectivity profile
Protocol: as §1, §2, §3

[1] = target: T2, recombinant human MMP-12 catalytic domain (Homo sapiens, UniProt P39900); assay: MMP-12 inhibitory assay (fluorogenic substrate cleavage); conditions: readout at 30 minutes, 37° C., Table 1
T2 construct: recombinant human MMP-12 catalytic domain; purchased Enzo BML-SE138
Protocol: as §1, §2

recombinant human MMP-1 = target: T3, recombinant human MMP-1 (Homo sapiens, UniProt P03956); assay: MMP selectivity assay, MMP-1; conditions: Table 2 selectivity profile
T3 sequence (P03956 100-469): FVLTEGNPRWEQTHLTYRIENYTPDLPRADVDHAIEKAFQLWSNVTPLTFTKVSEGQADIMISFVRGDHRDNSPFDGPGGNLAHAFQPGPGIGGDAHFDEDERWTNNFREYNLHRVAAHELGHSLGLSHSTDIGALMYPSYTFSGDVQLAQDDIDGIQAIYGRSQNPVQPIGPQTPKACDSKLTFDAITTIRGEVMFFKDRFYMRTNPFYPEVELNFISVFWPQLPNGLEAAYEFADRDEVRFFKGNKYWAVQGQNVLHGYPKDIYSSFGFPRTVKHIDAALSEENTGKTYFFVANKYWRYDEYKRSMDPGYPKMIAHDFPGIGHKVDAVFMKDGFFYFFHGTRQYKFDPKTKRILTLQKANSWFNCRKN
Protocol: as §1, §2, §3

recombinant human MMP-3 = recombinant human MMP-3 (Homo sapiens, UniProt P08254); assay: MMP selectivity assay, MMP-3; conditions: Table 2 selectivity profile
Protocol: as §1, §2, §3

recombinant human MMP-7 = target: T4, recombinant human MMP-7 (Homo sapiens, UniProt P09237); assay: MMP selectivity assay, MMP-7; conditions: Table 2 selectivity profile
T4 sequence (P09237 95-267): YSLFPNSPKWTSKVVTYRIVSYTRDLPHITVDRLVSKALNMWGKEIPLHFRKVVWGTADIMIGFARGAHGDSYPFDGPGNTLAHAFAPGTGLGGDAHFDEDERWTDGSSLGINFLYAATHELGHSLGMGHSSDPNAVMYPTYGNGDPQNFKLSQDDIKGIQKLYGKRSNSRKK
Protocol: as §1, §2, §3

T2 sequence (P39900 106-268 limits assumed): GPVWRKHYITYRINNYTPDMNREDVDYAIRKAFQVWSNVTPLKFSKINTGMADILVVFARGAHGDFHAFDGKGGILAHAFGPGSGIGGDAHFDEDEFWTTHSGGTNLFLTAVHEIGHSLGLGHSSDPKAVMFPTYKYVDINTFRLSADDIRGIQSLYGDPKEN
recombinant human MMP-3, sequence (P08254 100-477): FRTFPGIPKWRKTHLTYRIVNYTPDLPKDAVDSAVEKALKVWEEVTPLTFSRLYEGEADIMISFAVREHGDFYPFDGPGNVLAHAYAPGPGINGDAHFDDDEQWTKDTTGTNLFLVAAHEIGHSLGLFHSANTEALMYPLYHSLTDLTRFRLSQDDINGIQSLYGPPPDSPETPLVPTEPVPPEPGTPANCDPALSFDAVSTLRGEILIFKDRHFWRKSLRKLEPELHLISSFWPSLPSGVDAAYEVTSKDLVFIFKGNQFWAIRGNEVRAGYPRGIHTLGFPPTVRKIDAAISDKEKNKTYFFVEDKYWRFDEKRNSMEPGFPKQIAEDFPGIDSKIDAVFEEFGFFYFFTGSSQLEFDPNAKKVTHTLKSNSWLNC
recombinant human MMP-9, sequence (P14780 94-707): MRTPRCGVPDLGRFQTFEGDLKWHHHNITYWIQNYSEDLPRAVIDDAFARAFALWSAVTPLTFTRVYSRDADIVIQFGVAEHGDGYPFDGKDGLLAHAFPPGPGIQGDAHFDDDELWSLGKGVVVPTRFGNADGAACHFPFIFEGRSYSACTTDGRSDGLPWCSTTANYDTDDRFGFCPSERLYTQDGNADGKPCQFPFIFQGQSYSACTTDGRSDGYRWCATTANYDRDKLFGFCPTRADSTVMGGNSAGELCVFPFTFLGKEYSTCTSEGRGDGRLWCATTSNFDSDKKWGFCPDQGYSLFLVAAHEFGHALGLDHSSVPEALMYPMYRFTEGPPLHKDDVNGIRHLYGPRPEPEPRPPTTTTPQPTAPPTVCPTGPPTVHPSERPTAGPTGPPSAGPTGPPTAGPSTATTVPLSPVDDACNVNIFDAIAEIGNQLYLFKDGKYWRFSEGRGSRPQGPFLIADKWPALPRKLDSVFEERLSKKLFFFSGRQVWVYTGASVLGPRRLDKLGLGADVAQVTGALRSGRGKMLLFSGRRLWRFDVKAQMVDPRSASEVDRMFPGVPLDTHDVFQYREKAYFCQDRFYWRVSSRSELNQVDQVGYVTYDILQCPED

## Cc1cc(COc2ccc(Sc3ccncc3C3NC(=O)NC3=O)cc2)ccn1 (stereo not shown) [PC-16]
Recombinant human MMP-2
  IC50: 100 to 1000 nM
Recombinant human MMP-13
  IC50: 1000 to 10000 nM
Recombinant human MMP-9
  IC50: 1000 to 10000 nM
[1]
  IC50: < 10 nM
Recombinant human MMP-1
  IC50: > 10000 nM
Recombinant human MMP-3
  IC50: 1000 to 10000 nM
Recombinant human MMP-7
  IC50: > 10000 nM

Source: US20190352288A1, “MATRIX METALLOPROTEINASE (MMP) INHIBITORS AND METHODS OF USE THEREOF” (Foresee Pharmaceuticals Co., Ltd., priority 2018, published 2019)
